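Interpolation was linear, between the two tested concentrations surrounding the appropriate level; five concentrations were tested over 48 hours in 96-well plates. TGI marks complete inhibition of growth.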
Assays:
Assay in all cases: DTP human tumour cell line panel, 48 h
K-562 leukemia = system: K-562 leukemia
A549 NSCLC = system: A549 NSCLC
EKVX NSCLC = system: EKVX NSCLC
HOP-62 NSCLC = system: HOP-62 NSCLC
MDA-MB-435 = system: MDA-MB-435
SK-MEL-28 melanoma = system: SK-MEL-28 melanoma
IGROV1 ovarian = system: IGROV1 ovarian
KM12 colon = system: KM12 colon
HL-60(TB) leukemia = system: HL-60(TB) leukemia
DU-145 prostate = system: DU-145 prostate
OVCAR-3 ovarian = system: OVCAR-3 ovarian
BT-549 breast = system: BT-549 breast
RXF 393 renal = system: RXF 393 renal
SF-539 CNS = system: SF-539 CNS
RPMI-8226 leukemia = system: RPMI-8226 leukemia
HCT-116 colon = system: HCT-116 colon
SF-268 CNS = system: SF-268 CNS
SF-295 CNS = system: SF-295 CNS
SR leukemia = system: SR leukemia
PC-3 prostate = system: PC-3 prostate
NCI-H460 lung = system: NCI-H460 lung
TK-10 renal = system: TK-10 renal
MDA-N = system: MDA-N
COLO 205 colon = system: COLO 205 colon
SN12C renal = system: SN12C renal
MDA-MB-231 breast = system: MDA-MB-231 breast
HCC-2998 colon = system: HCC-2998 colon
UO-31 renal = system: UO-31 renal
U251 CNS = system: U251 CNS
SW-620 colon = system: SW-620 colon
MOLT-4 leukemia = system: MOLT-4 leukemia
NCI/ADR-RES ovarian = system: NCI/ADR-RES ovarian
SK-MEL-2 melanoma = system: SK-MEL-2 melanoma
HCT-15 colon = system: HCT-15 colon
M14 melanoma = system: M14 melanoma
OVCAR-8 ovarian = system: OVCAR-8 ovarian
ACHN renal = system: ACHN renal
UACC-62 melanoma = system: UACC-62 melanoma
LOX IMVI melanoma = system: LOX IMVI melanoma
MALME-3M melanoma = system: MALME-3M melanoma
NCI-H226 lung = system: NCI-H226 lung
HT29 colon = system: HT29 colon
OVCAR-5 ovarian = system: OVCAR-5 ovarian
NCI-H23 lung = system: NCI-H23 lung
786-0 renal = system: 786-0 renal
SK-MEL-5 melanoma = system: SK-MEL-5 melanoma
CCRF-CEM leukemia = system: CCRF-CEM leukemia
MCF7 breast = system: MCF7 breast
UACC-257 melanoma = system: UACC-257 melanoma
NCI-H522 lung = system: NCI-H522 lung
SNB-19 CNS = system: SNB-19 CNS
SNB-75 CNS = system: SNB-75 CNS
HS 578T breast = system: HS 578T breast
HOP-92 NSCLC = system: HOP-92 NSCLC
CAKI-1 renal = system: CAKI-1 renal
SK-OV-3 ovarian = system: SK-OV-3 ovarian
OVCAR-4 ovarian = system: OVCAR-4 ovarian
T-47D breast = system: T-47D breast

Measured: TGI

CN(C(=O)C1(C(=O)C=[N+]=[N-])CC1)c1ccccc1
not listed: HOP-92 NSCLC | CAKI-1 renal | SK-OV-3 ovarian | OVCAR-4 ovarian | T-47D breast
> 100 µM: all other assays above

CC(C)(CO)CNc1nc(N)nc(Cl)c1N
not listed: HL-60(TB) leukemia | RPMI-8226 leukemia | SR leukemia | M14 melanoma
> 100 µM: all other assays above
